From PubChem BioAssay (NCI)
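These data come from cells grown in 96-well plates and exposed to compound for 48 hours at five concentrations. TGI is the concentration that stops growth completely.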

Tests used:
Test in all cases: NCI anticancer screen, dose series, 48 h
[1] = tested on: HOP-18 NSCLC
[2] = tested on: RXF 393 renal
[3] = tested on: M14 melanoma
[4] = tested on: SNB-19 CNS
[5] = tested on: NCI-H522 lung
[6] = tested on: OVCAR-4 ovarian
[7] = tested on: DMS 114 small cell lung
[8] = tested on: DLD-1 colon
[9] = tested on: CCRF-CEM leukemia
[10] = tested on: BT-549 breast

| Structure (SMILES) | TGI [1] [µM] | TGI [2] [µM] | TGI [3] [µM] | TGI [4] [µM] | TGI [5] [µM] | TGI [6] [µM] | TGI [7] [µM] | TGI [8] [µM] | TGI [9] [µM] | TGI [10] [µM] |
| --- | --- | --- | --- | --- | --- | --- | --- | --- | --- | --- |
| O=C(Nc1ccc(Cl)cc1Cl)C1C(=O)C(=O)N(c2ccc(Cl)cc2Cl)C1=O (stereo not drawn) | > 100 | > 100 | > 100 | > 100 | > 100 | > 100 | > 100 | > 100 |  |  |
| COc1cc(OC)c(SSCCCCS(=O)O)c(OC)c1 | 45.8 | 27.6 | 27.5 | 34.1 | 21.1 | > 100 | 39 | 41.1 | 42.9 |  |
| CCOc1ccc(N=Cc2ccc3cc(C)ccc3n2)cc1 | > 100 | > 100 | > 100 | > 100 | > 100 | > 100 | > 100 | > 100 | 60.6 |  |
| CCN(CC)CCCNC(=O)C1COc2cc(-c3cc(=O)c4ccccc4o3)ccc2O1 (stereo not drawn) | > 100 | > 100 | 40 | > 100 | > 100 | > 100 | 50.9 | > 100 | > 100 |  |
| Cn1nc(-c2ccccc2)c(C(=O)/C=C/c2ccc(Cl)cc2)c(N2CCCCC2)c1=O | 4.94 | 2.8 | 9.17 | 4.72 | 4.26 |  | 4.37 | 7.08 | 5.56 |  |
| CC1=C[C@]2(O)C(=O)[C@H](C)C[C@H]3[C@@H](CC[C@@](C)(O)/C=C\2C1=O)C3(C)C | 98.9 | 19.8 | 39.9 | > 100 | 26.7 | 71.6 | > 53.9 | 34.9 | > 100 |  |
| CCOC(=O)Cc1ccc2c(c1O)C(=O)c1c(ccc(CC(=O)OCC)c1O)C2=O | > 100 | > 100 | > 100 | > 100 | > 100 |  | > 100 | > 100 | > 100 |  |
| O=C1[C@H]2ON(c3ccccc3)C(c3ccccc3)[C@H]2C(=O)N1c1ccc(Cc2ccc(N3C(=O)[C@@H]4ON(c5ccccc5)C(c5ccccc5)[C@@H]4C3=O)cc2)cc1 (stereo partly drawn) | > 100 | > 100 | > 100 |  |  | > 100 | > 100 | > 100 | > 100 |  |
| CC(=O)OC1CCn2nnc(CO)c21 (stereo not drawn) | > 100 | > 100 |  | > 100 | > 100 | > 100 | > 100 | > 100 |  |  |
| C[C@]12CCC(=O)C(O)=C1CC[C@@H]1C2CC[C@]2(C)NC(=O)CCC12 (stereo partly drawn) | > 100 | > 100 | > 100 | > 100 | > 100 | > 100 | > 100 |  | > 100 |  |
| c1ccc2c(NCCCCCCNc3c4ccccc4nc4ccccc34)c3ccccc3nc2c1 | 15.2 | 1.56 | 2.58 | 4.92 | 1.66 | 2.18 | 2 | 3.29 | 1.58 | 3.32 |
| CC(=O)c1cccc(C)c1C(=O)O | > 100 | > 100 | > 100 | > 100 | > 100 | > 100 | > 100 | > 100 | > 100 |  |
| O=C1C=CC(=O)C12CCc1ccccc12 | 97.4 | > 100 | > 100 | > 100 | 33.2 | > 100 | > 100 | > 100 | > 95.2 |  |
| CC(=O)CC(N)=O | > 100 | > 100 | > 100 | > 100 | > 100 | > 100 | > 100 | > 100 | > 100 |  |
| COc1ccc(NC(=O)CC/C(CC(=O)C(C)(C)C)=N\NC(=O)C(=O)NN)cc1 | > 100 | > 100 | > 100 | > 100 | > 100 | > 100 | > 100 | > 100 | > 100 |  |
